Data taken from patent publication US20050112573A1, “Method of detecting toxic substance” (priority 2001, published 2005).

Test system: yeast genes (level of expressed mRNA)
Test: DNA chip analysis of expressed mRNA of yeast genes after 2 h culture with a toxic chemical substance
Type: cell-based, Saccharomyces cerevisiae S288C
Method in brief: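 Values are treated-to-control fluorescence ratios from a whole-yeast-genome DNA chip (65° C, over 12 h hybridization) using Cy3/Cy5-labelled cDNA from mRNA. Log-phase S288C cells in YPD at 25° C were exposed 2 h to a toxicant at sublethal, growth-inhibiting concentration.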

## manganese ethylenebis(dithiocarbamate) [(8)]
Yeast gene YAL053W, ratio to control without chemical
  The level of expressed mRNA in the presence of chemical substance/: 0.8
Yeast gene YAR010C
  The level of expressed mRNA in the presence of chemical substance/The level of expressed mRNA in the absence of chemical substance: 1.3
Yeast gene YBL005W-A
  The level of expressed mRNA in the presence of chemical substance/The level of expressed mRNA in the absence of chemical substance: 1.0
Yeast gene YBL041W
  The level of expressed mRNA in the presence of chemical substance/The level of expressed mRNA in the absence of chemical substance: 1.7
Yeast gene YBL043W
  The level of expressed mRNA in the presence of chemical substance/The level of expressed mRNA in the absence of chemical substance: 2.1
Yeast gene YBL048W, ratio to control without chemical substance, 2 h culture
  The level of expressed mRNA in the presence of chemical substance/: 1.2
Yeast gene YBL078C
  The level of expressed mRNA in the presence of chemical substance/The level of expressed mRNA in the absence of chemical substance: 1.6
Yeast gene YBL107C, ratio to control without chemical substance, 2 h culture
  The level of expressed mRNA in the presence of chemical substance/: 1.9
Yeast gene YBR036C
  The level of expressed mRNA in the presence of chemical substance/in the absence of chemical substance: 0.7
Yeast gene YBR214W
  The level of expressed mRNA in the presence of chemical substance/The level of expressed mRNA in the absence of chemical substance: 0.7
Yeast gene YBR298C
  The level of expressed mRNA in the presence of chemical substance/in the absence of chemical substance: 0.5
Yeast gene YCL020W
  The level of expressed mRNA in the presence of chemical substance/The level of expressed mRNA in the absence of chemical substance: 1.7
Yeast gene YCL027W
  The level of expressed mRNA in the presence of chemical substance/The level of expressed mRNA in the absence of chemical substance: 0.6
Yeast gene YCR004C
  The level of expressed mRNA in the presence of chemical substance/The level of expressed mRNA in the absence of chemical substance: 1.2
Yeast gene YCR071C
  The level of expressed mRNA in the presence of chemical substance/The level of expressed mRNA in the absence of chemical substance: 0.9
Yeast gene YCR088W
  The level of expressed mRNA in the presence of chemical substance/The level of expressed mRNA in the absence of chemical substance: 0.5
Yeast gene YDL008W
  The level of expressed mRNA in the presence of chemical substance/The level of expressed mRNA in the absence of chemical substance: 1.2
Yeast gene YDL072C, ratio to control without chemical
  The level of expressed mRNA in the presence of chemical substance/: 0.8
Yeast gene YDL078C
  The level of expressed mRNA in the presence of chemical substance/in the absence of chemical substance: 1.0
Yeast gene YDL204W, ratio to control without chemical
  The level of expressed mRNA in the presence of chemical substance/: 1.1
Yeast gene YDL215C
  The level of expressed mRNA in the presence of chemical substance/in the absence of chemical substance: 1.1
Yeast gene YDL222C, ratio to control without chemical
  The level of expressed mRNA in the presence of chemical substance/: 0.7
Yeast gene YDL238C
  The level of expressed mRNA in the presence of chemical substance/The level of expressed mRNA in the absence of chemical substance: 5.8
Yeast gene YDR055W
  The level of expressed mRNA in the presence of chemical substance/The level of expressed mRNA in the absence of chemical substance: 1.6
Yeast gene YDR084C
  The level of expressed mRNA in the presence of chemical substance/The level of expressed mRNA in the absence of chemical substance: 0.7
Yeast gene YDR085C
  The level of expressed mRNA in the presence of chemical substance/The level of expressed mRNA in the absence of chemical substance: 2.0
Yeast gene YDR104C
  The level of expressed mRNA in the presence of chemical substance/The level of expressed mRNA in the absence of chemical substance: 1.3
Yeast gene YDR115W
  The level of expressed mRNA in the presence of chemical substance/The level of expressed mRNA in the absence of chemical substance: 1.3
Yeast gene YDR259C
  The level of expressed mRNA in the presence of chemical substance/The level of expressed mRNA in the absence of chemical substance: 1.4
Yeast gene YDR297W
  The level of expressed mRNA in the presence of chemical substance/in the absence of chemical substance: 1.5
Yeast gene YDR315C
  The level of expressed mRNA in the presence of chemical substance/The level of expressed mRNA in the absence of chemical substance: 1.4
Yeast gene YDR330W, ratio to control without chemical substance, 2 h culture
  The level of expressed mRNA in the presence of chemical substance/: 1.1
Yeast gene YDR358W
  The level of expressed mRNA in the presence of chemical substance/The level of expressed mRNA in the absence of chemical substance: 1.2
Yeast gene YDR387C
  The level of expressed mRNA in the presence of chemical substance/in the absence of chemical substance: 0.7
Yeast gene YDR388W
  The level of expressed mRNA in the presence of chemical substance/The level of expressed mRNA in the absence of chemical substance: 0.8
Yeast gene YDR411C, ratio to control without chemical substance, 2 h culture
  The level of expressed mRNA in the presence of chemical substance/: 0.9
Yeast gene YDR432W
  The level of expressed mRNA in the presence of chemical substance/The level of expressed mRNA in the absence of chemical substance: 0.5
Yeast gene YDR481C
  The level of expressed mRNA in the presence of chemical substance/The level of expressed mRNA in the absence of chemical substance: 1.0
Yeast gene YDR510W
  The level of expressed mRNA in the presence of chemical substance/The level of expressed mRNA in the absence of chemical substance: 1.5
Yeast gene YDR511W, ratio to control without chemical substance, 2 h culture
  The level of expressed mRNA in the presence of chemical substance/: 1.7
Yeast gene YDR545W, ratio to control without chemical substance, 2 h culture
  The level of expressed mRNA in the presence of chemical substance/: 0.6
Yeast gene YEL001C, ratio to control without chemical
  The level of expressed mRNA in the presence of chemical substance/: 1.2
Yeast gene YEL042W
  The level of expressed mRNA in the presence of chemical substance/The level of expressed mRNA in the absence of chemical substance: 0.7
Yeast gene YEL066W
  The level of expressed mRNA in the presence of chemical substance/The level of expressed mRNA in the absence of chemical substance: 1.4
Yeast gene YER004W, ratio to control without chemical substance, 2 h culture
  The level of expressed mRNA in the presence of chemical substance/: 1.1
Yeast gene YER035W, ratio to control without chemical substance, 2 h culture
  The level of expressed mRNA in the presence of chemical substance/: 1.2
Yeast gene YER039C
  The level of expressed mRNA in the presence of chemical substance/The level of expressed mRNA in the absence of chemical substance: 0.7
Yeast gene YER079W, ratio to control without chemical substance, 2 h culture
  The level of expressed mRNA in the presence of chemical substance/: 1.4
Yeast gene YER106W, ratio to control without chemical
  The level of expressed mRNA in the presence of chemical substance/: 1.2
Yeast gene YER107C
  The level of expressed mRNA in the presence of chemical substance/The level of expressed mRNA in the absence of chemical substance: 0.8
Yeast gene YER130C
  The level of expressed mRNA in the presence of chemical substance/The level of expressed mRNA in the absence of chemical substance: 1.2
Yeast gene YER158C, ratio to control without chemical substance, 2 h culture
  The level of expressed mRNA in the presence of chemical substance/: 0.9
Yeast gene YER163C, ratio to control without chemical substance, 2 h culture
  The level of expressed mRNA in the presence of chemical substance/: 1.4
Yeast gene YER175C, ratio to control without chemical substance, 2 h culture
  The level of expressed mRNA in the presence of chemical substance/: 1.1
Yeast gene YFL006W, ratio to control without chemical substance, 2 h culture
  The level of expressed mRNA in the presence of chemical substance/: 1.0
